In data set [1] the test system is bean beetle (Acanthoscalides obtectus). Nature of the data set: Pesticidal effect on bean beetle, treated filter paper discs (Example 15, Table I). The format is in vivo. The following applies: 24 hours, killed and paralysed. The method, then: From the compounds of the present invention a series of dilution is prepared in acetone; concentration 1, 0.2, 0.04, 0.008 and 0.0016%, respectively. The solutions thus obtained (0.5 ml) are poured dropwise onto Whatman No. 1. filter paper discs (diameter 90 mm) placed in Petri-dishes. After the solvent has evaporated 1-2 weeks' old bean beetle (Acanthoscalides obtectus) images are placed into the Petri-dishes. 3 replicates (10-15 insects each) are used for each concentration. The pesticidal effect of the test compounds is evaluated after 24 hours, on the basis of the percental ratio of the killed and paralysed individuals.

The subject of data set [2] is house fly (Musca domestica). As to the kind of experiment: Insecticidal activity on house fly, treated filter paper discs (Example 16, Table II). The format is in vivo. Also noted: mortality: concentration or dose not given beside the values. The method, then:
From the test compounds a series of dilution disclosed in Example 15 is prepared whereupon 3-5 days' old house fly (Musca domestica) images being under slight carbon dioxide narcosis are placed onto the infected treated filter paper discs. Three replicates ([…] each) are used for each concentration. The insecticidal activity of the test compounds and that of the referent compounds is evaluated after 24 hours on the basis of the percental ratio of the killed and paralyzed flies. In the solvent control grop there was no mortality.

The test system of data set [3] is small American flour-beetle (Tribolium confusum) larvae. As to the kind of experiment: Insecticidal effect on flour-beetle larvae, application onto dorsal cuticulum (Example 17, Table III). The following applies: topical, 96 h. The method, then:
From the 2,3-dihydro-2,2-dimethyl-7-benzofuranyl-N-methyl-N-(N'-morpholinomethyl)-carbamate, dioxacarb and carbofuran series of dilutions are prepared in acetone: the active ingredient content of the solutions amounts to 40.5, 13.5, 4.5, 1.5, 0.5, 0.16 and 0.05 […] per […], respectively. The solutions (0.5 μl) are applied with the aid of a Hamilton syringe onto the dorsal cuticulum of small American flour-beetle (Tribolium confusum) of L6 larva stage. The age of the larvae is determined on the basis of the average larva weight (=1.81±0.37 mg/larva) See Sokoloff 1972.
Two replicates are used for each concentration (10 individuals per replicate). The insecticidal effect of the test compounds is evaluated after 96 hours on the basis of the percental ratio of killed larvae.

A short description of data set [4]: in vivo. Also noted: species or system rats. The following applies: rat, po. From the text:
The acute toxicity data (p.o.) of the test compounds are disclosed in Table IV.

The test system of data set [5] is house fly (Musca domestica). Nature of the data set: whole plant or invertebrate. It counts as in vivo. As to the method:
From the compound according to Example 1 a series of dilution is prepared in acetone; concentration: 0.6, 0.2, 0.067 and 0.022% by weight, respectively. From these solutions 0.5 ml each is poured dropwise onto Whatman No. 1 filter paper discs (diameter 90 mm) placed in Petri-dishes. The discs were previously treated with 0.5 ml of a 0.04% piperonyl butoxide solution. After the evaporation of the acetone 3-5 days' old house fly (Musca domestica) imagos being under slight carbon dioxide narcosis are placed onto the filter paper discs. The test is evaluated as described in Example 16.

Data set [6] deals with rats. The following applies: p.o.; cited from earlier work.
Setting [7] is: concentration of active ingredient 0.0016%.
The mark [8] stands for this setting: concentration of active ingredient 0.008%.
Setting [9] is: concentration of active ingredient 0.04%.
The mark [10] stands for this setting: concentration of active ingredient 0.2%.
Where [11] appears, read: concentration of active ingredient 1%.
The mark [12] stands for this setting: female rats, p.o., read-out: acute toxicity (p.o.) on female rats.
[13] abbreviates: male rats, p.o., read-out: acute toxicity (p.o.) on male rats.

As a reminder, the mortality is the share of the test organisms that died.

Where two headings read alike, the source gives them in different places.

The compound `CNC(=O)Oc1cccc2c1OC(C)(C)C2` [Carbofuran, 2,3-dihydro-2,2-dimethyl-benzofurane-7-yl-methyl-carbamate, reference compound] registered a mortality % in data set [1] (setting [7]) of 0%. The mortality % in data set [1] (setting [8]) is recorded as 93%. This compound also yielded a mortality % in data set [1] (setting [9]) of 100%. For the same compound, in data set [1] (setting [10]), the mortality % was determined as 100%. The compound further had a mortality % in data set [1] (setting [11]) of 100%. This compound yielded a mortality in data set [2] (24 hours, killed and paralyzed) of 53%. Further, in data set [2] (concentration of active ingredient 0.0016%, 24 hours, killed and paralyzed, read-out: mortality %), the mortality at 0.0016 % came to 43%. Moreover, the mortality at 0.04 % in data set [2] (concentration of active ingredient 0.04%, 24 hours, killed and paralyzed, read-out: mortality %) was determined as 67%. The mortality at 0.2 % in data set [2] (concentration of active ingredient 0.2%, 24 hours, killed and paralyzed, read-out: mortality %) amounted to 100%. Also, the mortality at 1 % in data set [2] (concentration of active ingredient 1%, 24 hours, killed and paralyzed, read-out: mortality %) is 100%. Further, in data set [3], the mortality at 0.03 µg/larva turned out to be 30%, the mortality at 0.16 µg/larva turned out to be 70%, the mortality at 0.5 µg/larva came to 100% and the mortality at 1.5 µg/larva is 100%. Moreover, in data set [3], the mortality at 4.5 µg/larva stood at 100%, the mortality at 13 µg/larva came out at 100% and the mortality at 40.5 µg/larva was found to be 100%. The compound further registered an LD50 in data set [4] (acute toxicity (p.o.) on male rats) of 8 to 14 mg/kg. The mortality at 0.022 % in data set [5] (concentration of active ingredient 0.022%, evaluated as Example 16 (24 hours), read-out: mortality %) turned out to be 71%. In data set [5] (concentration of active ingredient 0.067%, evaluated as Example 16 (24 hours), read-out: mortality %), the mortality at 0.067 % was 100%. Moreover, the mortality at 0.2 % in data set [5] (concentration of active ingredient 0.2%, evaluated as Example 16 (24 hours), read-out: mortality %) worked out at 100%. In data set [5] (concentration of active ingredient 0.6%, evaluated as Example 16 (24 hours), read-out: mortality %), the mortality at 0.6 % is 100%. The “acute toxicity LD50” value in data set [6] was 8 to 10 mg/kg.

`CNC(=O)Oc1ccccc1C1OCCO1` [Dioxacarb, reference compound]: in data set [1] (setting [7]), the mortality % turned out to be 0%. The mortality % in data set [1] (setting [8]) is reported as 30%. This compound registered a mortality % in data set [1] (setting [9]) of 43%. The compound further yielded a mortality % in data set [1] (setting [10]) of 93%. The mortality % in data set [1] (setting [11]) is listed as 100%. In data set [2] (24 h), this compound gave a mortality at 0.0016 % of 0%, a mortality at 0.04 % of 17%, a mortality at 0.08 % of 10% and a mortality at 0.2 % of 90%. In addition, the mortality at 1 % in data set [2] (24 h) was determined as 100%. Besides, in data set [3], the mortality at 0.03 µg/larva was 25%, the mortality at 0.16 µg/larva amounted to 40%, the mortality at 0.5 µg/larva stood at 45% and the mortality at 1.5 µg/larva stood at 50%. Further, in data set [3], the mortality at 4.5 µg/larva was determined as 50%, the mortality at 13 µg/larva is 55% and the mortality at 40.5 µg/larva amounted to 80%.

In data set [1] (setting [7]), `CN(CN1CCOCC1)C(=O)Oc1cccc2c1OC(C)(C)C2` [Example 1, 2,3-dihydro-2,2-dimethyl-7-benzofuranyl-N-methyl-N-(N'-morpholinyl-methyl)-carbamate] showed a mortality % of 0%. In data set [1] (setting [8]), this compound yielded a mortality % of 50%. Further, the mortality % in data set [1] (setting [9]) turned out to be 87%. The compound further came in with a mortality % in data set [1] (setting [10]) of 97%. Moreover, the mortality % in data set [1] (setting [11]) amounted to 100%. In data set [2] (24 h), this compound yielded a mortality at 0.0016 % of 30%, a mortality at 0.04 % of 43%, a mortality at 0.08 % of 40% and a mortality at 0.2 % of 80%. The same compound displayed a mortality at 1 % in data set [2] (24 h) of 100%. In data set [3], this compound yielded a mortality at 0.03 µg/larva of 75%, a mortality at 0.16 µg/larva of 80%, a mortality at 0.5 µg/larva of 90% and a mortality at 1.5 µg/larva of 90%. In data set [3], this compound had a mortality at 4.5 µg/larva of 95%, a mortality at 13 µg/larva of 100% and a mortality at 40.5 µg/larva of 100%. The LD50 in data set [4] (setting [12]) amounted to 50 mg/kg. For the same compound, the LD50 in data set [4] (setting [13]) amounted to 50 mg/kg. In addition, in data set [5] (24 h), the mortality at 0.022 % was 32%, the mortality at 0.067 % worked out at 78%, the mortality at 0.2 % came to 100% and the mortality at 0.6 % came out at 100%.

In turn, `CC(C)NCN(C)C(=O)Oc1cccc2c1OC(C)(C)C2` [Example 2, 2,3-dihydro-2,2-dimethyl-7-benzofuranyl-N-methyl-N-/isopropyl-amino-methyl/-carbamate] showed a mortality % in data set [1] (setting [7]) of 0%. In data set [1] (setting [8]), this compound gave a mortality % of 40%. Also, the mortality % in data set [1] (setting [9]) is 60%. In data set [1] (setting [10]), this compound yielded a mortality % of 100%. In data set [1] (setting [11]), this compound displayed a mortality % of 100%. In data set [2] (24 h), this compound registered a mortality at 0.0016 % of 0%, a mortality at 0.04 % of 30%, a mortality at 0.08 % of 10% and a mortality at 0.2 % of 67%. In data set [2] (24 h), this compound had a mortality at 1 % of 90%.

Regarding `CCOC(=O)CCN(CN(C)C(=O)Oc1cccc2c1OC(C)(C)C2)C(C)C` [Example 3, 2,3-dihydro-2,2-dimethyl-7-benzofuranyl-N-methyl-N-[(N'-isopropyl)-N'-(β-carbethoxy-ethyl)-amino-methyl]-carbamate], the mortality % in data set [1] (setting [7]) is given as 0%; in data set [1] (setting [8]), 27%; in data set [1] (setting [9]) it was 53%; in data set [1] (setting [10]), 80%; in data set [1] (setting [11]), 97%. Also, the mortality at 0.0016 % in data set [2] (24 h) was 0%. Besides, in data set [2] (24 h), the mortality at 0.04 % came out at 40%. This compound had a mortality at 0.08 % in data set [2] (24 h) of 33%. Also, the mortality at 0.2 % in data set [2] (24 h) was 70%. In data set [2] (24 h), the mortality at 1 % came to 97%. Also, the LD50 amounted to 31.8 mg/kg in data set [4] (setting [12]) and 23.3 mg/kg in data set [4] (setting [13]).

In the case of `COc1ccc(CCNCN(C)C(=O)Oc2cccc3c2OC(C)(C)C3)cc1OC` [Example 4, 2,3-dihydro-2,2-dimethyl-7-benzofuranyl-N-methyl-N-[3,4-(dimethoxy)-phenylethyl]-amino-methyl-carbamate], the mortality % in data set [1] (setting [7]) is listed as 0%. Also, the mortality % in data set [1] (setting [8]) was 37%. In data set [1] (setting [9]), this compound yielded a mortality % of 70%. The mortality % in data set [1] (setting [10]) came out at 87%. For the same compound, in data set [1] (setting [11]), the mortality % was found to be 100%. In data set [2] (24 h), this compound displayed a mortality at 0.0016 % of 0%, a mortality at 0.04 % of 37%, a mortality at 0.08 % of 20% and a mortality at 0.2 % of 83%. Moreover, the mortality at 1 % in data set [2] (24 h) was determined as 100%.

The values are drawn from patent US4788217A, “Pesticidal carbamates” (priority 1984, dated 1988).
